Measurements published in patent publication US11447486B2, “2-amino-benzimidazole derivatives and their use as 5-lipoxygenase and/or prostaglandin E synthase inhibitors” (INSTITUT PASTEUR KOREA, priority 2014, dated 2022).
Where two headings read alike, the source gives them in different places.

Key:
human 5-LOX = target: T1, human 5-LOX (Homo sapiens, UniProt P09917); test: 5-LOX enzyme activity, fluorescence method (5-HPETE, H2DCFDA); format: biochemical; conditions: read-out: 5-LO (IC50)
T1 construct: purchased Cayman 60402; host or cells: insect cells (lysate)
T1 sequence (P09917 1-674): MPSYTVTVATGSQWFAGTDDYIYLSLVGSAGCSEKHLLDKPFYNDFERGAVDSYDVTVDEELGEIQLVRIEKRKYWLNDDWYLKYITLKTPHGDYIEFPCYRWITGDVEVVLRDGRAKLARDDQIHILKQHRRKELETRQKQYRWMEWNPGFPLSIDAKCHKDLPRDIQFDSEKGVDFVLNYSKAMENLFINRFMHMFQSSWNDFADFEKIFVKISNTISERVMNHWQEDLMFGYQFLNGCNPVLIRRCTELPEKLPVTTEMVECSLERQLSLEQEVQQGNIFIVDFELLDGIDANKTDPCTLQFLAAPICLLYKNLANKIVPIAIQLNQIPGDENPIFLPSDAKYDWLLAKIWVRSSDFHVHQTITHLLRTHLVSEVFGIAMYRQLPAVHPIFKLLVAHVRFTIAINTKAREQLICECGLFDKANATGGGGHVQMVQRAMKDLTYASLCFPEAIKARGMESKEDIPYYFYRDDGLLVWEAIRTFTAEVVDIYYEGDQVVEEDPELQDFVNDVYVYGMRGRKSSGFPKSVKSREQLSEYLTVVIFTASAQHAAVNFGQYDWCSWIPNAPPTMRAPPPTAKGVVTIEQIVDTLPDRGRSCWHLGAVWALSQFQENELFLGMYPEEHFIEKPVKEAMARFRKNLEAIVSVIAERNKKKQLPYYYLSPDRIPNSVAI
Experimental: The activity of compounds against 5-LOX were determined by measuring LTB4 (leukotriene B4) levels and/or by a fluorescence method. Both approaches are outlined in more detail below;
The compound, in a dose response manner(0.5 nM to 10 uM), and enzyme mixture was pre-incubated for 5 minutes, and the enzymatic reaction was initiated by addition of ATP and arachidonic acid to a final concentration of 100 uM and 3 uM, respectively. […] All steps were carried out at room temperature.

[1] = tested on: Rat basophilic leukemia (RBL) cells; test: LTB4 secretion assay in RBL (rat basophilic leukemia cells); format: cell-based
Experimental: Rat basophilic leukemia (RBL) cells (ATCC, Cat #CRL-2256) were maintained in EMEM (ATCC, Cat #30-2003) supplemented with 15% FBS. The day before RBL assay, cells were seeded at a concentration of 2×10^4 cells per well in 96-well plates. The media was replaced with 100 ul of EMEM supplemented with 0.5% FBS and compounds in dose response(5 nM to 100 uM) were added. After 15 min of pre-incubation at 37° C., arachidonic acid and calcium ionophore (A23187) were added to give a final concentration of 2.5 uM and 5 uM, respectively. After a further 10 min incubation at 37° C., culture supernatant was transferred and quantification of LTB4 was done with a Leukotriene B4 EIA kit (Cayman, Cat #520111) as instructed.

Structure (SMILES): CNC(=O)c1cnc(Oc2ccc(CNc3nc4ccc(N)cc4n3C)cc2)nc1 [Compound 462]
- IC50 (human 5-LOX): < 1000 nM
- EC50 ([1]; Rattus norvegicus, RBL): > 20 µM

Structure (SMILES): c1ccc(Oc2ccc(CNc3nc4cc(NC5CCC5)ccc4[nH]3)cc2)cc1 [Compound 96]
- IC50 (human 5-LOX): < 1000 nM
- EC50 ([1]; Rattus norvegicus, RBL): < 10 µM

Structure (SMILES): Nc1ccc2nc(NCc3ccc4cccnc4c3)[nH]c2c1 [Compound 159]
- IC50 (human 5-LOX): < 1000 nM
- EC50 ([1]; Rattus norvegicus, RBL): > 20 µM

Structure (SMILES): Cc1ccc(Oc2ccc(CNc3nc4ccc(NC5COC5)cc4n3C)cc2)nc1 [Compound 353]
- IC50 (human 5-LOX): < 1000 nM
- EC50 ([1]; Rattus norvegicus, RBL): < 10 µM

Structure (SMILES): Nc1ccc2nc(NCC(=O)O)n(Cc3ccc(Oc4ccc(Cl)cc4)cc3)c2c1 [Compound 225]
- IC50 (human 5-LOX): < 1000 nM
- EC50 ([1]; Rattus norvegicus, RBL): > 20 µM

Structure (SMILES): CN(C)c1nc2cc(N3CCC(c4nc5ccc(Cl)cc5o4)C3)ccc2[nH]1 (centres unmarked) [Compound 236]
- IC50 (human 5-LOX): < 1000 nM
- EC50 ([1]; Rattus norvegicus, RBL): < 10 µM

Structure (SMILES): COCCn1c(NCc2ccc(Oc3ccc(Cl)cn3)cc2)nc2ccc(N)cc21 [Compound 263]
- IC50 (human 5-LOX): < 1000 nM
- EC50 ([1]; Rattus norvegicus, RBL): 10 to 20 µM

Structure (SMILES): Cn1c(NCc2ccc(Oc3ccc(Cl)cn3)cn2)nc2ccc(N)cc21 [Compound 299]
- IC50 (human 5-LOX): < 1000 nM
- EC50 ([1]; Rattus norvegicus, RBL): < 10 µM

Structure (SMILES): Cn1ccnc1CNc1ccc2nc(NCc3ccc(Oc4ncc(Cl)cn4)cc3)n(C)c2c1 [Compound 359]
- IC50 (human 5-LOX): < 1000 nM
- EC50 ([1]; Rattus norvegicus, RBL): < 10 µM

Structure (SMILES): Cn1c(NCc2ccc(Oc3ccncn3)cc2)nc2ccc(N)cc21 [Compound 370]
- IC50 (human 5-LOX): < 1000 nM
- EC50 ([1]; Rattus norvegicus, RBL): 10 to 20 µM

Structure (SMILES): Cn1c(NCc2ccc(Oc3nc4ccccc4n3C)cc2)nc2ccc(N)cc21 [Compound 356]
- IC50 (human 5-LOX): < 1000 nM
- EC50 ([1]; Rattus norvegicus, RBL): 10 to 20 µM

Structure (SMILES): CCn1c(NCc2ccc(Oc3ncc(Cl)cn3)cc2)nc2ccc(Nc3cc(C(F)(F)F)n(C)n3)cc21 [Compound 510]
- IC50 (human 5-LOX): > 10000 nM
- EC50 [1]: < 10 µM

Structure (SMILES): Cc1cc(Nc2ccc3nc(NCc4ccc(Oc5ncc(Cl)cn5)cc4)n(C)c3n2)n[nH]1 [Compound 500]
- IC50 (human 5-LOX): 1000 to 10000 nM
- EC50 ([1]; Rattus norvegicus, RBL): 10 to 20 µM

Structure (SMILES): CCC(Nc1nc2ccc(N)cc2n1C)c1ccc(Oc2ncc(Cl)cn2)cc1 (centres unmarked) [Compound 452]
- IC50 (human 5-LOX): < 1000 nM
- EC50 ([1]; Rattus norvegicus, RBL): < 10 µM

Structure (SMILES): COC(c1ccc(CNc2nc3ccc(N)cc3[nH]2)cc1)c1ccccn1 (centres unmarked) [Compound 181]
- IC50 (human 5-LOX): < 1000 nM
- EC50 ([1]; Rattus norvegicus, RBL): > 20 µM

Structure (SMILES): COC(=O)c1ccc(CNc2ccc3nc(N(C)C)[nH]c3c2)cc1 [Compound 179]
- IC50 (human 5-LOX): < 1000 nM
- EC50 ([1]; Rattus norvegicus, RBL): < 10 µM

Structure (SMILES): Cn1c(NCc2ccc(Oc3ncc4cc(Cl)ccc4n3)cc2)nc2ccc(N)cc21 [Compound 405]
- IC50 (human 5-LOX): < 1000 nM
- EC50 ([1]; Rattus norvegicus, RBL): < 10 µM

Structure (SMILES): Cn1c(NCc2ccc(OCc3ncco3)cc2)nc2ccc(N)cc21 [Compound 342]
- IC50 (human 5-LOX): < 1000 nM
- EC50 ([1]; Rattus norvegicus, RBL): < 10 µM

Structure (SMILES): Cc1cc(Oc2ccc(Cl)cn2)ccc1CNc1nc2ccc(N)cc2n1C [Compound 290]
- IC50 (human 5-LOX): < 1000 nM
- EC50 ([1]; Rattus norvegicus, RBL): < 10 µM

Structure (SMILES): Cn1c(NCc2ccc(Oc3ccc(Cl)nc3)cc2)nc2ccc(N)cc21 [Compound 280]
- IC50 (human 5-LOX): < 1000 nM
- EC50 ([1]; Rattus norvegicus, RBL): < 10 µM

Structure (SMILES): Cn1c(NCc2ccc(Oc3ccc(Cl)cn3)cc2Cl)nc2ccc(N)cc21 [Compound 285]
- IC50 (human 5-LOX): < 1000 nM
- EC50 ([1]; Rattus norvegicus, RBL): < 10 µM

Structure (SMILES): Clc1ccc(Oc2ccc(CNc3nc4ccc(NC5COC5)cc4n3C3COC3)cc2)nc1 [Compound 266]
- IC50 (human 5-LOX): < 1000 nM
- EC50 ([1]; Rattus norvegicus, RBL): 10 to 20 µM

Structure (SMILES): Cn1c(NCc2ccc(Oc3nc4ccc(Cl)cc4n3C)cc2)nc2ccc(N)cc21 [Compound 428]
- IC50 (human 5-LOX): < 1000 nM
- EC50 ([1]; Rattus norvegicus, RBL): < 10 µM

Structure (SMILES): Cc1cc(Nc2ccc3nc(NCc4ccc(Oc5ncc(Cl)cn5)cc4)[nH]c3c2)n[nH]1 [Compound 484]
- IC50 (human 5-LOX): < 1000 nM
- EC50 [1]: > 20 µM

Structure (SMILES): CCn1c(NCc2ccc(Oc3ncc(C(F)(F)F)cn3)cc2)nc2ccc(NC3COC3)cc21 [Compound 548]
- IC50 (human 5-LOX): < 1000 nM
- EC50 ([1]; Rattus norvegicus, RBL): < 10 µM

Structure (SMILES): Cn1c(NCc2ccc(Oc3ccnc4cc(Cl)ccc34)cc2)nc2ccc(N)cc21 [Compound 375]
- IC50 (human 5-LOX): < 1000 nM
- EC50 ([1]; Rattus norvegicus, RBL): < 10 µM

Structure (SMILES): Cc1cc(Nc2cc(Cl)c3nc(NCc4ccc(Oc5ncc(Cl)cn5)cc4)n(C)c3c2)n[nH]1 [Compound 556]
- IC50 (human 5-LOX): < 1000 nM
- EC50 ([1]; Rattus norvegicus, RBL): < 10 µM

Structure (SMILES): Cn1c(NCc2ccc(Oc3ncc(Cl)cn3)cc2)nc2ccc(NC3CN(C(=N)N)C3)cc21 [Compound 443]
- IC50 (human 5-LOX): < 1000 nM
- EC50 ([1]; Rattus norvegicus, RBL): > 20 µM
